Assays:
[1] = test system: passive cutaneous anaphylaxis (PCA), ovalbumin challenge; test: Passive cutaneous anaphylaxis (PCA) in rats; type: in vivo, Male Wistar rats; conditions: S.C., PBS with NaHCO3, rat
Description: Serum containing heat labile homocytotropic anitbody was raised in rats to crystallized ovalbumin XOA by the method of Mota (I. Mota, Immunology, 7,681 [1964]) using Bordettela pertussis vaccine as adjuvant.
Passive cutaneous anaphylaxis (PCA) was carried out by a method based on that of Ovary and Bier, (A. Ovary and O. G. Bier, Proc. Soc. Exp. Biol. Med. 81, 584, [1952]) as modified by Goose and Blair. (Immunology 16, 749 (1969).
Male Wistar rats of 250-300 g. were given 0.1 ml. of each of six twofold serial dilutions of pooled antiserum in 0.9% saline injected intradermally into separate sites on their shaved backs. Later (72 hrs.) the animals were challenged by intravenous injection of 0.3 ml. of a 1% solution of ovalbumin in an isotonic solution of saline buffered with 0.05 M, pH 7.2, Sorenson Buffer (PBS), mixed with 0.2 ml. of a 5% solution of Pontamine Sky Blue (6BX C.I. 24410, Raymond A. Lamb, London) in isotonic saline. The rats were killed after 20 min and the diameter of the blue wheals at the antibody injection sites was measured on the outer surface of the skin. The starting dilution of the serum was adjusted so that there was no response, after challenge, at the injection site of the highest dilution and a maximum response at the lowest dilutions. Typically six twofold serial dilutions of the serum from 1/4 to 1/128 were used.
Compounds were tested for their ability to reduce the diameter of the wheals at those intradermal sites which in control animals gave less than maximum response. Each dose of the compound was administered to six rats at a measured time prior to intravenous challenge with ovalbumin. Control groups of six rats were given the same volume of carrier fluid (0.2 ml, 100 g^-1) at the same time prior to challenge.
The results were calculated as follows: % inhibition of PCA=100 (1-a/b) where a=the sum of the diameters of the wheals produced in the test animal at the sites of antibody dilutions as used in control groups and b=the mean sum of the diameters of the wheals produced in the control group of animals at those antibody sites where at least five out of six of the animals gave less than maximum response. A typical variations in the control group of animals was SEM±6%.

[2] = Oral LD50 toxicity; type: in vivo; conditions: rat, in vivo, Charles River Sprage Dawley CD strain male rats
From the text: (§1) Toxicity: Oral LD50 of the compound of example 1(d) in Charles River Sprage Dawley CD strain Male Rats: 980 mgkg^-1. LD50 data confidence limits: 95%, 548-1,413 mgkg^-1.

[3] = test system: Charles River Sprage Dawley CD strain Male Rats; test: Oral LD50 toxicity; type: in vivo; conditions: 95% confidence limits
From the text: as §1

Cc1cc2c(cc1C)C(=O)c1[nH]nnc1C2=O [1(d), 4,9-dihydro-6,7-dimethyl-4,9-dioxo-1H-naphtho[2,3-d]-triazole]
% Inhib PCA ([1]; 5 mins, 0.1 mg/kg): 30%
% Inhib PCA ([1]; 5 mins, 0.2 mg/kg): 54%
% Inhib PCA ([1]; 5 mins, 0.4 mg/kg): 61%
% Inhib PCA ([1]; 5 mins, 0.8 mg/kg): 86%
LD50 [2]: 980 mg/kg
LD50 data confidence limits: 95% [3]: 548-1,413 mgkg^-1

Cc1ccc2c(c1)C(=O)c1nn[nH]c1C2=O [2(d), 4,9-Dihydro-4,9-dioxo-6methyl-1H-naphtho[2,3-d]-triazole]
% Inhib PCA ([1]; 10 mins, 20 mg/kg): 73%
% Inhib PCA ([1]; 30 mins, 20 mg/kg): 57%

COc1ccc2c(c1)C(=O)c1nn[nH]c1C2=O [3(e), 4,9-Dihydro-4,9-dioxo-6-methoxy-1H-naphtho[2,3-d]-triazole]
% Inhib PCA ([1]; 10 mins, 20 mg/kg): 61%
% Inhib PCA ([1]; 30 mins, 20 mg/kg): 34%

O=C1c2ccc(F)cc2C(=O)c2[nH]nnc21 [5(e), 4,9-Dihydro-4,9-dioxo-6-fluoro-1H-naphtho[2,3-d]-triazole]
% Inhib PCA ([1]; 10 mins, 20 mg/kg): 90%
% Inhib PCA ([1]; 30 mins, 20 mg/kg): 27%

O=C1c2cccc([N+](=O)[O-])c2C(=O)c2[nH]nnc21 [Example 4, 4,9-Dihydro-4,9-dioxo-5-nitro-1H-naphtho-[2,3-d]-triazole]
% Inhib PCA ([1]; 10 mins, 10 mg/kg): 44%
% Inhib PCA ([1]; 30 mins, 10 mg/kg): 19%

Cc1cc2c(c([N+](=O)[O-])c1C)C(=O)c1nn[nH]c1C2=O [Example 6, 4,9-Dihydro-6,7-dimethyl-4,9-dioxo-5-nitronaphtho[2,3-d]-triazole]
% Inhib PCA ([1]; 10 mins, 1 mg/kg): 66%
% Inhib PCA ([1]; 30 mins, 1 mg/kg): 28%

O=C1c2ccccc2C(=O)c2[nH]nnc21 [Example 8, 4,9-Dihydro-4,9-dioxo-1H-naphtho[2,3-d]-triazole]
% Inhib PCA ([1]; 5 mins, 1 mg/kg): 39%
% Inhib PCA ([1]; 5 mins, 2 mg/kg): 82%

From patent US4263309A, “Polycyclic triazoles used to inhibit allergic responses” (Beecham Group Limited, priority 1977, dated 1981)
